Assays:
Water solubility = assay type: physicochemical
[1] = single 200-mg oral dose, fasting subjects; cited from earlier work

water solubility (Water solubility)	SMILES	time of peak plasma levels after administration [1]
water insoluble	CC(=O)O.CC(C)Cc1ccc(C(C)C(=O)O)cc1 (centres unmarked) [Ibuprofen ethanoate]	
	CC(C)Cc1ccc(C(C)C(=O)O)cc1 (centres unmarked) [Ibuprofen]	about 1 hr
